Columns and labels:
human keratinocytes = assay: Viability of keratinocytes by trypan blue exclusion; format: cell-based; conditions: increasing doses, 24 and 96 hours, except 100 and 200 μM at 96 hours
Procedure: Human epidermal keratinocytes were obtained from foreskin by dispase II (5 mg/ml for 60 minutes at 37° C., Boehringer Mannheim, Germany) separation of epidermal sheets.
The epidermis was incubated in 0.25% trypsin/0.02% EDTA for 20 minutes a 37° C. and mechanically disaggregated.
The epidermal cell suspensions were plated (2.5×10^4/cm^2) on mytomicin C-treated 3T3-J2 cells (2.4×10^4/cm^2), ATCC, Rockville, Md., USA) and cultured in 5% CO2 humidified atmosphere in the keratinocyte growth medium: Dulbecco's modified Eagle's medium and Ham's F12 media (3:1 mixture, Biochrom KG, Berlin, Germany) containing fetal calf serum (10%, ICN Biomedicals, Aurora, Ohio), insulin ([…], Sigma, St.Louis, Mo., USA), transferrin ([…], Sigma), adenine (0.18 mM, Sigma), hydrocortisone ([…], Sigma), triiodothyronine (20 pM, Sigma), cholera toxin (0.1 nM, Sigma), epidermal growth factor (10 ng/ml, Sigma), 4 mM glutamine (Sigma), and penicillin/streptomycin (50 IU/ml, Biochrom.). […]
Cell viability was evaluated by trypan blue exclusion.
In order to understand the effects of diacerein on human keratinocytes, a possible alteration of vital parameters was evaluated by the trypan blue exclusion.

IL-1 = IL-1 release from keratinocytes by ELISA; format: cell-based, human
Procedure: (§1) UV-B radiation was delivered with a battery of lamps (TL 20W/12RS UV-B Philips Medical) before and after treatment with diacerein.
(§2) In other experiments, UVB irradiation was delivered only after diacerein addition.
(§3) Before irradiation, the cells were washed once with PBS and irradiated in presence of PBS.
(§4) Controls were sham irradiated for identical periods as measured by International Light Research Radiometer (Newburyport, Mass.).
(§5) Quantitation of cytokine levels was performed by a quantitative two-site enzyme immunoassay according to manufacturer's instructions, using ELISA kits for IL-1, IL-6, IL-8 and TNF-α.
(§6) The sample concentration was determined by absorbance at 450 nm with the correction wavelength set at 540 nm.
IL-1 is constitutively expressed in human keratinocytes. IL-1 release was measured after the addition of increasing doses of diacerein.

IL-6 = IL-6 release from keratinocytes by ELISA; format: cell-based, human
Procedure: as §1, §2, §3, §4, §5, §6
No constitutive levels of IL-6 are normally detected in human keratinocytes.
Therefore, IL-6 release was stimulated by UVB irradiation.

IL-8 = IL-8 release from keratinocytes by ELISA; format: cell-based, human
Procedure: as §1, §2, §3, §4, §5, §6
As TNF-α is a potent inducer of IL-8 in keratinocytes and plays an important role in the pathogenesis of psoriasis, the effect of diacerein on IL-8 was also evaluated after stimulating keratinocytes with TNF-α.

TNF-α = TNF-α release from keratinocytes by ELISA; format: cell-based, human; conditions: 24 hours after UVB irradiation
Procedure: as §1, §2, §3, §4, §5, §6
As mentioned above, TNF-α is of great relevance in the pathomechanisms of psoriasis. Therefore, we wanted to evaluate the effect of diacerein on the release of this cytokine from human keratinocytes.

[1] = system: patients with mild to moderate psoriatic arthritis; assay: Clinical trial of Artrodar (diacerein) in psoriasis with mild to moderate psoriatic arthritis; format: in vivo, human; conditions: for Ritchie articular index, hip sx: baseline Ritchie 2
Procedure: The aim of this study was to assess the efficacy and safety of diacerein in the treatment of psoriasis with mild to moderate psoratic arthritis.
The investigational drug, Artrodar® (Laboratoire Medidom S. A. (Geneva)), is a size 1 hard gelatin capsule.
Ten patients satisfying all the inclusion and exclusion criteria indicated below were tested.
Male or female patients over 18 years of age with • cutaneous involvement defined by the psoriasis area and severity index (PASI) (<15); • persistent negative latex test or ELISA for rheumatoid factors; • established diagnosis of mild to moderate severity psoriatic arthritis of at least 3 months duration characterized by oligoarthritis (<4 involved joints) and/or spondyloarthritis; • normal values for haematology and clinical chemistry values (ESR 1 h<30 mm, WBC with leucocyte differential count, RBC, Hb ([…]), platelets, creatinine, transaminases, alkaline phosphatase, bilirubin); • normal or drug-controlled blood pressure values; • failure to respond to topical (including emollients and coal tar) and phototherapy; • evidence of medically approved contraceptive methods in women of childbearing age; • written informed consent from each patient;
Exclusion criteria: • patient under 18 years of age; • positive rheumatoid factor (RF) or antinuclear antibodies (ANA) >1:80; • history of inflammatory bowel disease or evidence of another rheumatologic disorder; • ascertained individual sensitivity to diacerein or any of the components in the capsule; • chronic illness that, in the opinion of the Investigator, would limit successful participation in the trial; • treatment with slow acting drugs and/or corticosteroids during the month prior to study start; • patient who, in the judgement of the Investigator, […]. Treatment
Treatment was 2×50 mg capsules of Artrodar® (each capsule contains 50 mg diacerein) taken orally per day for 6 months.
One capsule was to be taken in the afternoon after lunch while the other was to be taken in the evening after dinner.
No slow acting disease modifying drugs for psoriatic arthritis or corticosteroids were allowed during one month prior to the start of the study and throughout the study.
Treatment with NSAIDs, analgesics and other drugs was kept constant during the study and the doses used were recorded every week.
The following were assessed at baseline and at regular intervals during the study: • The PASI index (Fredriksson and Petterson, 1978)^i for assessing cutaneous involvement. • Pain on activity (target joint) assessed using the VAS. • Ritchie articular index.
All adverse events either observed by the Investigator or reported by […] were recorded.

[2] = system: cytokines of the IL-1 family, especially IL-1β; conditions: prior knowledge; cited from earlier work
IL-6, TNF-α and LIF = conditions: prior knowledge; cited from earlier work
[3] = cited from earlier work
prostaglandin PGE2 = conditions: cited from earlier work
[4] = of 7 patients, 2×50 mg orally per day
[5] = patient one, 2nd visit, improved from Ritchie 1
[6] = patient three, 2nd visit, improved from Ritchie 2

CC(=O)Oc1cccc2c1C(=O)c1c(OC(C)=O)cc(C(=O)O)cc1C2=O [diacerein, 4,5-bis(acetyloxy)-9,10-dihydro-9,10-dioxo-2-anthracene carboxylic acid]
alteration of keratinocyte viability (human keratinocytes): did not cause any significant alteration | effect on UVB-induced increase in IL-1 release (IL-1; 24 hours after UVB irradiation): prevented this effect | dose down-regulating IL-1 release almost to baseline levels (IL-1; UVB-irradiated keratinocytes): 0.1 µM | effect of timing of administration on IL-1 release (IL-1; before versus after UVB irradiation): more powerful when administered before UVB irradiation | effect on constitutive levels of IL-1 (IL-1; normal conditions, no UVB): did not affect | effect on UVB-induced IL-6 release (IL-6; 24 hours after irradiation): caused a reduction | effect of timing of addition on IL-6 release (IL-6; UVB-irradiated keratinocytes): significantly more effective when added both before and after UVB light | dose giving significant reduction in IL-6 release (IL-6; added both before and after UVB): 1 µM | dose necessary for down regulation of IL-6 (IL-6; administered only before UVB): 5 µM | effect on IL-6 levels (IL-6; basic conditions, no UVB): did not affect | doses with significant reduction of UVB-induced IL-8 levels (IL-8; 24 hours after UVB irradiation): 5 to 100 µM | effect of timing of addition on IL-8 release (IL-8; UVB-irradiated keratinocytes): more effective when given both before and after UVB irradiation | doses down-regulating TNF-α-induced IL-8 release (IL-8; keratinocytes stimulated with TNF-α, 24 hours): 50 to 200 µM | effect on IL-8 (IL-8; normal conditions, no stimulus): unaffected | doses down-regulating UVB-induced TNF-α release (TNF-α): 50 to 200 µM | adverse effect reported ([1]; all treated patients, caused drop-out): diarrhea in one patient | number of patients who responded after 1 month [1, 4]: 4 patients | number of patients who responded after 2 months [1, 4]: 2 patients | number of patients who responded after 3 months [1, 4]: 1 patients | psoriasis status ([1]; patient five, 2nd visit Jul. 14, 2000, 1 month treatment, baseline PASI 10.1): Psoriasis: status unchanged. | Pain on VAS ([1]; patient five, 2nd visit, baseline 60 mm): Pain on VAS = 50 mm | Ritchie articular index, knee pain (bilateral) ([1]; patient five, 2nd visit, baseline Ritchie 1): had knee pain (bilateral) (Ritchie 1). | Responder ([1]; patient five, treatment period only 1 month): No as | Responder ([1]; patient four): Yes | PASI score ([1]; patient four, 2nd visit Jul. 13, 2000, baseline 13.6): PASI score = 6.7 | Pain on VAS ([1]; patient four, 2nd visit, baseline 50 mm): Pain on VAS = 50 mm. | Ritchie articular index, shoulder sx ([1]; patient four, 2nd visit, baseline Ritchie 1): Shoulder sx: Unchanged | Ritchie articular index, hip sx ([1]; patient four, 2nd visit): Hip sx: Unchanged | Ritchie articular index, TMC dx ([1]; patient four, 2nd visit, improved from Ritchie 1): TMC dx: Improved from Ritchie 1 to 0 | PASI score ([1]; patient four, 3rd visit Aug. 30, 2000, baseline 13.6): PASI score = 2.2 | Pain on VAS ([1]; patient four, 3rd visit, baseline 50 mm): Pain on VAS = 50 mm. | Ritchie articular index, shoulder sx ([1]; patient four, 3rd visit, baseline Ritchie 1): Shoulder sx: Unchanged | Ritchie articular index, hip sx ([1]; patient four, 3rd visit): Hip sx: Unchanged | Ritchie articular index, TMC dx ([1]; patient four, 3rd visit, improved from Ritchie 1): TMC dx: Improved from Ritchie 1 to 0 | Responder ([1]; patient one (stopped after 4 weeks)): Yes | PASI score ([1]; patient one, 2nd visit Aug. 18, 2000, after stopping treatment in mid-July and mild return, baseline 4.8): PASI score = 2.4 | Ritchie articular index, TMC sx [1, 5]: TMC sx improved from Ritchie 1 to 0 | Ritchie articular index, shoulder sx [1, 5]: Shoulder sx: improved from Ritchie 1 to 0 | Ritchie articular index, tibiotarsal joint sx ([1]; patient one, 2nd visit, improved from Ritchie 2): Tibiotarsal joint sx: improved from Ritchie 2 to 0. | Responder ([1]; patient seven): Yes | PASI score ([1]; patient seven, 2nd visit Jun. 6, 2000, baseline 9.6): PASI score = 6.6 | Pain on the VAS ([1]; patient seven, 2nd visit, baseline 60 mm): Pain on the VAS = 50 mm. | PASI score ([1]; patient seven, 3rd visit Jul. 3, 2000, baseline 9.6): PASI = score 5.0 | Pain on the VAS ([1]; patient seven, 3rd visit, baseline 60 mm): Joint swelling decreased in all joints. Pain on the VAS = 40 mm. | PASI score ([1]; patient seven, 4th visit Aug. 18, 2000, baseline 9.6): PASI score = 0.9 | Responder ([1]; patient six): Yes | psoriasis status ([1]; patient six, 2nd visit, after 2 months treatment, baseline PASI 8.1): disappeared in June. | PASI score ([1]; patient six, 3rd visit Jul. 19, 2000 (psoriasis reappeared), baseline 8.1): PASI score = 3.9 | Ritchie articular index, right knee ([1]; patient six, 4th visit, baseline Ritchie 3): 0 | Pain on the VAS ([1]; patient six, right knee, 3rd visit, baseline 50 mm): VAS = 50 mm. | pain (VAS) ([1]; patient six, right knee, 4th visit Aug. 29, 2000, baseline 50 mm): 1 cm | Responder ([1]; patient three): Yes | PASI score ([1]; patient three, 2nd visit Jul. 20, 2000, baseline 6.9): PASI score = 6.9 | Ritchie articular index, wrist dx [1, 6]: Wrist dx: improved from Ritchie 2 to 1. | Ritchie articular index, wrist sx [1, 6]: Wrist sx: improved from Ritchie 2 to 0 | Ritchie articular index, wrist sx ([1]; patient three, 3rd visit): Wrist sx: Ritchie 0 | Morning stiffness ([1]; patient three, 3rd visit Aug. 24, 2000): Morning stiffness = 30 minutes. | PASI score ([1]; patient three, 3rd visit Aug. 24, 2000, baseline 6.9): PASI score = 3.9 | Ritchie articular index, wrist dx ([1]; patient three, 3rd visit, improved from Ritchie 1): Arthritis: Wrist dx: improved from Ritchie 1 to 0. | Responder ([1]; patient two (stopped after 1 month, diarrhea)): Yes | PASI score ([1]; patient two, 2nd visit Jul. 20, 2000, baseline 0.6): PASI score = 0.1 | Ritchie articular index, 2nd MCF dx ([1]; patient two, 2nd visit, printed as improved from Ritchie 1, baseline Ritchie 2): Arthritis: 2nd MCF, dx, improved from Ritchie 1 to Ritchie 0. | patients who responded to treatment (improvement on PASI score) ([1]; seven patients who took Diacerein one month or more, 2×50 mg capsules orally per day): 100% | effect on synthesis and activity of pro-inflammatory catabolic cytokines of the IL-1 family, especially IL-1β [2]: inhibit the synthesis and activity | effect on IL-6 and other cytokines such as TNF-α and LIF (IL-6, TNF-α and LIF): inhibit IL-6 and other cytokines such as TNF-α and LIF | carcinogenic potential ([3]; extensive toxicology studies): does not show carcinogenic potential | tolerability ([3]; prior use in osteoarthritis and rheumatoid arthritis, toxicology studies): well tolerated | gastrotoxic potential (prostaglandin PGE2; inferred from no effect on PGE2 production): does not have gastrotoxic potential | effect on prostaglandin PGE2 production (prostaglandin PGE2; prior knowledge): not to effect prostaglandin PGE2 production
